Measured values published in US10919916B2, “Boron-containing small molecules” (Bill & Melinda Gates Foundation, priority 2016, dated 2021).
Values after ≈ are worked out from the molar mass of the structure shown. Read-outs that look alike come from different tables or passages of the source.

What was measured:
[1] = test system: Staphylococcus aureus, MRSA (ATCC 33591); assay: Antibacterial MIC assay (microbroth dilution, CLSI); type: cell-based; conditions: read-out: MIC Staphylococcus aureus, MRSA (ATCC 33591)
Text: (§1) All MIC testing of bacteria followed the Clinical and Laboratory Standards Institute (CLSI) guidelines for antimicrobial testing of aerobic bacteria (Methods for Dilution Antimicrobial Susceptibility Tests for Bacteria that Grow Aerobically; Approved Standard—Tenth Edition, M07-A10; Performance Standards for Antimicrobial Susceptibility Testing; Twenty-fifth Informational Supplement, M100-S25).
(§2) Briefly, the microbroth dilution MIC method was used to quantitatively measure the in vitro antibacterial activity of a compound against a given bacterial isolate. The following bacterial strains were evaluated: Staphylococcus aureus, MRSA (ATCC 33591) and Streptococcus pneumoniae (ATCC 49619). Bacteria were grown in cation-adjusted Mueller-Hinton broth, with additions as required per species growth requirements (e.g. 3% lysed horse blood for fastidious organisms such as S. pneumoniae). A direct colony suspension in saline was prepared from colonies on an overnight agar plate to achieve a turbidity equivalent to 0.5 McFarland standard, which was subsequently diluted into the assay plate to achieve 5×10^5 CFU/mL. Assays plates were prepared by 2-fold dilution of compound across the plate and included a positive growth control.

[2] = test system: Streptococcus pneumoniae (ATCC 49619); assay: as above; type: cell-based
Text: as §1
as §2, with “The following bacterial strains were evaluated: Staphylococcus aureus, MRSA (ATCC 33591) and Streptococcus pneumoniae (ATCC 49619).” left out

[3] = ATCC49619, read-out: MIC Streptococcus pneumoniae (ATCC 49619)
[4] = microbroth dilution, cation-adjusted Mueller-Hinton broth, 35° C. for 16-20 hours
[5] = ATCC49619, microbroth dilution, 3% lysed horse blood, 35° C. for 16-20 hours, read-out: MIC Streptococcus pneumoniae (ATCC 49619)

MIC [1, 4] [µg/mL]	MIC [2, 5] [µg/mL]	Compound	MIC [1] [µg/mL]	MIC [2, 3] [µg/mL]
–	–	C=C[C@]1(C)C[C@@H](OC(=O)COc2ccc3c(c2)B(O)OC3)[C@]2(C)[C@H](C)CC[C@]3(CCC(=O)[C@H]32)[C@@H](C)[C@@H]1O [Compound 1, (3aR,4R,5R,7S,8S,9R,9aS,12R)-8-hydroxy-4,7,9,12-tetramethyl-3-oxo-7-vinyldecahydro-4,9a-propanocyclopenta[8]annulen-5-yl 2-((1-hydroxy-1,3-dihydrobenzo[c][1,2]oxaborol-6-yl)oxy)acetate]	< 0.25	< 0.25
–	–	C=C[C@]1(C)C[C@@H](OC(=O)COc2ccc3c(c2F)B(O)OC3)[C@]2(C)[C@H](C)CC[C@]3(CCC(=O)[C@H]32)[C@@H](C)[C@@H]1O [Compound 2, (3aR,4R,5R,7S,8S,9R,9aS,12R)-8-hydroxy-4,7,9,12-tetramethyl-3-oxo-7-vinyldecahydro-4,9a-propanocyclopenta[8]annulen-5-yl 2-((7-fluoro-1-hydroxy-1,3-dihydrobenzo[c][1,2]oxaborol-6-yl)oxy)acetate]	< 0.25	0.5 to 2 (≈ 0.946 to 3.78 µM)
–	–	C=C[C@]1(C)C[C@@H](OC(=O)COc2cc3c(cc2F)COB3O)[C@]2(C)[C@H](C)CC[C@]3(CCC(=O)[C@H]32)[C@@H](C)[C@@H]1O [Compound 3, (3aR,4R,5R,7S,8S,9R,9aS,12R)-8-hydroxy-4,7,9,12-tetramethyl-3-oxo-7-vinyldecahydro-4,9a-propanocyclopenta[8]annulen-5-yl 2-((5-fluoro-1-hydroxy-1,3-dihydrobenzo[c][1,2]oxaborol-6-yl)oxy)acetate]	< 0.25	< 0.25
–	–	C=C[C@]1(C)C[C@@H](OC(=O)COc2cc(F)c3c(c2)B(O)OC3)[C@]2(C)[C@H](C)CC[C@]3(CCC(=O)[C@H]32)[C@@H](C)[C@@H]1O [Compound 4, (3aR,4R,5R,7S,8S,9R,9aS,12R)-8-hydroxy-4,7,9,12-tetramethyl-3-oxo-7-vinyldecahydro-4,9a-propanocyclopenta[8]annulen-5-yl 2-((4-fluoro-1-hydroxy-1,3-dihydrobenzo[c][1,2]oxaborol-6-yl)oxy)acetate]	< 0.25	0.5 to 2 (≈ 0.946 to 3.78 µM)
–	–	C=C[C@]1(C)C[C@@H](OC(=O)COc2c(F)cc3c(c2F)B(O)OC3)[C@]2(C)[C@H](C)CC[C@]3(CCC(=O)[C@H]32)[C@@H](C)[C@@H]1O [Compound 5, (3aR,4R,5R,7S,8S,9R,9aS,12R)-8-hydroxy-4,7,9,12-tetramethyl-3-oxo-7-vinyldecahydro-4,9a-propanocyclopenta[8]annulen-5-yl 2-((5,7-difluoro-1-hydroxy-1,3-dihydrobenzo[c][1,2]oxaborol-6-yl)oxy)acetate]	< 0.25	< 0.25
–	–	C=C[C@]1(C)C[C@@H](OC(=O)COc2ccc3c(c2Cl)B(O)OC3)[C@]2(C)[C@H](C)CC[C@]3(CCC(=O)[C@H]32)[C@@H](C)[C@@H]1O [Compound 6, (3aR,4R,5R,7S,8S,9R,9aS,12R)-8-hydroxy-4,7,9,12-tetramethyl-3-oxo-7-vinyldecahydro-4,9a-propanocyclopenta[8]annulen-5-yl 2-((7-chloro-1-hydroxy-1,3-dihydrobenzo[c][1,2]oxaborol-6-yl)oxy)acetate]	< 0.25	0.5 to 2 (≈ 0.918 to 3.67 µM)
–	–	C=C[C@]1(C)C[C@@H](OC(=O)COc2cc(CN)c3c(c2Cl)B(O)OC3)[C@]2(C)[C@H](C)CC[C@]3(CCC(=O)[C@H]32)[C@@H](C)[C@@H]1O [Compound 8, (3aR,4R,5R,7S,8S,9R,9aS,12R)-8-hydroxy-4,7,9,12-tetramethyl-3-oxo-7-vinyldecahydro-4,9a-propanocyclopenta[8]annulen-5-yl 2-((4-(aminomethyl)-7-chloro-1-hydroxy-1,3-dihydrobenzo[c][1,2]oxaborol-6-yl)oxy)acetate]	< 0.25	0.5 to 2 (≈ 0.871 to 3.48 µM)
–	–	C=C[C@]1(C)C[C@@H](OC(=O)COc2ccc3c(c2C)B(O)OC3)[C@]2(C)[C@H](C)CC[C@]3(CCC(=O)[C@H]32)[C@@H](C)[C@@H]1O [Compound 9, (3aR,4R,5R,7S,8S,9R,9aS,12R)-8-hydroxy-4,7,9,12-tetramethyl-3-oxo-7-vinyldecahydro-4,9a-propanocyclopenta[8]annulen-5-yl2-((1-hydroxy-7-methyl-1,3-dihydrobenzo[c][1,2]oxaborol-6-yl)oxy)acetate]	< 0.25	0.5 to 2 (≈ 0.953 to 3.81 µM)
< 0.25	< 0.25	C=C[C@]1(C)C[C@@H](OC(=O)COc2cc3c(cc2C)COB3O)[C@]2(C)[C@H](C)CC[C@]3(CCC(=O)[C@H]32)[C@@H](C)[C@@H]1O [Compound 10, (3aR,4R,5R,7S,8S,9R,9aS,12R)-8-hydroxy-4,7,9,12-tetramethyl-3-oxo-7-vinyldecahydro-4,9a-propanocyclopenta[8]annulen-5-yl 2-((1-hydroxy-5-methyl-1,3-dihydrobenzo[c][1,2]oxaborol-6-yl)oxy)acetate]	–	–
–	–	C=C[C@]1(C)C[C@@H](OC(=O)COc2cc(C)c3c(c2)B(O)OC3)[C@]2(C)[C@H](C)CC[C@]3(CCC(=O)[C@H]32)[C@@H](C)[C@@H]1O [Compound 11, (3aR,4R,5R,7S,8S,9R,9aS,12R)-8-hydroxy-4,7,9,12-tetramethyl-3-oxo-7-vinyldecahydro-4,9a-propanocyclopenta[8]annulen-5-yl 2-((1-hydroxy-4-methyl-1,3-dihydrobenzo[c][1,2]oxaborol-6-yl)oxy)acetate]	< 0.25	< 0.25
< 0.25	< 0.25	C=C[C@]1(C)C[C@@H](OC(=O)COc2cc(CN)c3c(c2)B(O)OC3)[C@]2(C)[C@H](C)CC[C@]3(CCC(=O)[C@H]32)[C@@H](C)[C@@H]1O.Cl [Compound 12, (3aR,4R,5R,7S,8S,9R,9aS,12R)-8-hydroxy-4,7,9,12-tetramethyl-3-oxo-7-vinyldecahydro-4,9a-propanocyclopenta[8]annulen-5-yl 2-((4-(aminomethyl)-1-hydroxy-1,3-dihydrobenzo[c][1,2]oxaborol-6-yl)oxy)acetate Hydrochloride]	–	–
–	–	C=C[C@]1(C)C[C@@H](OC(=O)COc2ccc3c(c2OC)B(O)OC3)[C@]2(C)[C@H](C)CC[C@]3(CCC(=O)[C@H]32)[C@@H](C)[C@@H]1O [Compound 14, (3aR,4R,5R,7S,8S,9R,9aS,12R)-8-hydroxy-4,7,9,12-tetramethyl-3-oxo-7-vinyldecahydro-4,9a-propanocyclopenta[8]annulen-5-yl2-((1-hydroxy-7-methoxy-1,3-dihydrobenzo[c][1,2]oxaborol-6-yl)oxy)acetate]	< 0.25	0.5 to 2 (≈ 0.925 to 3.7 µM)
< 0.25	< 0.25	C=C[C@]1(C)C[C@@H](OC(=O)COc2cc3c(cc2OC)COB3O)[C@]2(C)[C@H](C)CC[C@]3(CCC(=O)[C@H]32)[C@@H](C)[C@@H]1O [Compound 15, (3aR,4R,5R,7S,8S,9R,9aS,12R)-8-hydroxy-4,7,9,12-tetramethyl-3-oxo-7-vinyldecahydro-4,9a-propanocyclopenta[8]annulen-5-yl 2-((1-hydroxy-5-methoxy-1,3-dihydrobenzo[c][1,2]oxaborol-6-yl)oxy)acetate]	–	–
< 0.25	–	C=C[C@]1(C)C[C@@H](OC(=O)COc2ccc3c(c2C#N)B(O)OC3)[C@]2(C)[C@H](C)CC[C@]3(CCC(=O)[C@H]32)[C@@H](C)[C@@H]1O [Compound 16, (3aR,4R,5R,7S,8S,9R,9aS,12R)-8-hydroxy-4,7,9,12-tetramethyl-3-oxo-7-vinyldecahydro-4,9a-propanocyclopenta[8]annulen-5-yl 2-((7-cyano-1-hydroxy-1,3-dihydrobenzo[c][1,2]oxaborol-6-yl)oxy)acetate]	–	–
–	–	C=C[C@]1(C)C[C@@H](OC(=O)COc2ccc3c(c2)B(O)OC3C)[C@]2(C)[C@H](C)CC[C@]3(CCC(=O)[C@H]32)[C@@H](C)[C@@H]1O (stereo partly drawn) [Compound 19, (3aR,4R,5R,7S,8S,9R,9aS,12R)-8-hydroxy-4,7,9,12-tetramethyl-3-oxo-7-vinyldecahydro-4,9a-propanocyclopenta[8]annulen-5-yl 2-((1-hydroxy-3-methyl-1,3-dihydrobenzo[c][1,2]oxaborol-6-yl)oxy)acetate]	< 0.25	0.5 to 2 (≈ 0.953 to 3.81 µM)
4 to 32 (≈ 7.2 to 57.6 µM)	–	C=C[C@]1(C)C[C@@H](OC(=O)COc2cc(CN)c3c(c2)B(O)OC3)[C@]2(C)[C@H](C)CC[C@]3(C[C@H](O)C(=O)[C@H]32)[C@@H](C)[C@@H]1O [Compound 42, (2S,3aR,4R,5R,7S,8S,9R,9aS,12R)-2,8-dihydroxy-4,7,9,12-tetramethyl-3-oxo-7-vinyldecahydro-4,9a-propanocyclopenta[8]annulen-5-yl 2-((4-(aminomethyl)-1-hydroxy-1,3-dihydrobenzo[c][1,2]oxaborol-6-yl)oxy)acetate]	–	–
